How the values were obtained:
[1] = system: A. baumannii strain (AB5075); experiment: Tetrazolium/formazan (TTC) assay, effective inhibitory concentration; format: cell-based, Acinetobacter baumannii
[2] = system: A. baumannii strain (AB5075); experiment: Broth microdilution MIC; conditions: Acinetobacter baumannii, 24 h
A. baumannii (AB5075) = experiment: Growth curve assay
[3] = system: Staphylococcus aureus lipases; set-up: method as in PMID 17559400; conditions: cited from earlier work

SMILES	EIC ([1]; TTC assay, lowest concentration preventing red color formation, tested 420–640 µg/mL) [µg/mL]	direct antimicrobial activity against A. baumannii ([1]; summary of MIC and EIC)	MIC [2] [µg/mL]	growth extent versus DMSO (A. baumannii (AB5075); 64 µg/mL)	growth extent versus DMSO (A. baumannii (AB5075); 128 µg/mL, mid-logarithmic and early stationary phases)	IC50 [3] [µM]
CCCCCCCCCCC[C@@H](C[C@@H]1OC(=O)[C@H]1CCCCCC)OC(=O)[C@H](CC(C)C)NC=O [Orlistat, orlistat]	640	minimal direct antimicrobial activity	> 128	not	significant reduction in growth extent	–
CC(C)=CCC/C(C)=C/CC/C(C)=C/CO [Farnesol]	–	–	–	–	–	570

Source: publication PMC12457599, “Targeting Acinetobacter baumannii lipase by coniferous species through metabolomics supported approach” (Scientific Reports, 2025)
